The species entered for data set [1] is Homo sapiens. The data set can be described thus: Selectivity ratio of IC50 for recombinant human CYP2D6 to IC50 for recombinant human CYP1A1.
For data set [2], the target named is Cytochrome P450 2C9 (Homo sapiens, UniProt P11712). The data set can be described thus: Inhibition of recombinant human CYP2C9 expressed in HEK293 cells using 3-cyano-7-ethoxycoumarin as substrate pretreated for 30 mins followed by substrate addition measured for 60 mins by fluorescence assay. Format: ADME.
Sequence of Cytochrome P450 2C9 (P11712 whole entry): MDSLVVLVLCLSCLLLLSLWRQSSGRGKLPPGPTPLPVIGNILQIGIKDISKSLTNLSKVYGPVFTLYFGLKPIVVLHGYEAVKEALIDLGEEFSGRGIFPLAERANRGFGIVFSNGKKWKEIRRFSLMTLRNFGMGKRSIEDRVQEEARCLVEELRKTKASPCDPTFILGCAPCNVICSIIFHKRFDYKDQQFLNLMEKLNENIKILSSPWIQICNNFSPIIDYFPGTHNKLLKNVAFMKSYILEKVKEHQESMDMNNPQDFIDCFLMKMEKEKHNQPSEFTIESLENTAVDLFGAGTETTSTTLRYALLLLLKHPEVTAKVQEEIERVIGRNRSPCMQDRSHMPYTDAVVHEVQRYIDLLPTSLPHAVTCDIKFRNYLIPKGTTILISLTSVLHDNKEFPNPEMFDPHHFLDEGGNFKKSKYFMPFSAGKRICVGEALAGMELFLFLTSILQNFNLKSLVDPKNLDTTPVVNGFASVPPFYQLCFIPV
The target in data set [3] is Cytochrome P450 2C19 (Homo sapiens, UniProt P33261). The data set can be described thus: Inhibition of human CYP2C19 expressed in yeast microsomal membranes using 3-cyano-7-ethoxycoumarin as substrate measured after 10 mins by fluorescence assay. In kind it is ADME, cell membranes, Microsomal Membrane.
Sequence of Cytochrome P450 2C19 (P33261 whole entry): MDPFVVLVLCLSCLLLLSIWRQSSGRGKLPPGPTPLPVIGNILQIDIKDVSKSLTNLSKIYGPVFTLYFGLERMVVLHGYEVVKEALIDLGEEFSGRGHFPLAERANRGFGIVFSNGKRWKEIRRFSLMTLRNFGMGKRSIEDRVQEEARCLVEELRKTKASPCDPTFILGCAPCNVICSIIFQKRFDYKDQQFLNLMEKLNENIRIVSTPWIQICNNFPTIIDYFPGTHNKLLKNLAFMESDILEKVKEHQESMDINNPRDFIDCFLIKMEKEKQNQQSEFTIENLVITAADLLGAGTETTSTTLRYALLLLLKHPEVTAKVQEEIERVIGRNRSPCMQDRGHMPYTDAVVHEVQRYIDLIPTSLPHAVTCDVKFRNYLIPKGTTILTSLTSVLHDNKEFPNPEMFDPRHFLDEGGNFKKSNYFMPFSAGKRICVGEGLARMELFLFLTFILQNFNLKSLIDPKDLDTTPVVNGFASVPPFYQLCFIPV
For data set [4], the target named is Cytochrome P450 2E1 (Homo sapiens, UniProt P05181). The data set can be described thus: Inhibition of human CYP2E1 expressed in yeast cells. In kind it is ADME, cell-based.
Sequence of Cytochrome P450 2E1 (P05181 whole entry): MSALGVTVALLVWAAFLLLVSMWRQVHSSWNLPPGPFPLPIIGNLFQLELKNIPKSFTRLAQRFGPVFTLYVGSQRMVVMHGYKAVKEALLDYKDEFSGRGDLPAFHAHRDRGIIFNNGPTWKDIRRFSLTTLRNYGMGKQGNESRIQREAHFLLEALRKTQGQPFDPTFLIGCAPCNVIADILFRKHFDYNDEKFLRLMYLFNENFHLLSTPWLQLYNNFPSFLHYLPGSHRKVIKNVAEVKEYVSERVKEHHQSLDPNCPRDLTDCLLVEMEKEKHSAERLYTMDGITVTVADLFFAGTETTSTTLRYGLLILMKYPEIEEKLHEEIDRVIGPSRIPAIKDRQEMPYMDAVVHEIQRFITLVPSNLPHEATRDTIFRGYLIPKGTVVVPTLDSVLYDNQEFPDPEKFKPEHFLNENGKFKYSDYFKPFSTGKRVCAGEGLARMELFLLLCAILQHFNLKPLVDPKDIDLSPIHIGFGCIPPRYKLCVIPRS
In data set [5] the target is T1, Cytochrome P450 1B1 (Homo sapiens, UniProt Q16678).
T1 sequence (Q16678 whole entry): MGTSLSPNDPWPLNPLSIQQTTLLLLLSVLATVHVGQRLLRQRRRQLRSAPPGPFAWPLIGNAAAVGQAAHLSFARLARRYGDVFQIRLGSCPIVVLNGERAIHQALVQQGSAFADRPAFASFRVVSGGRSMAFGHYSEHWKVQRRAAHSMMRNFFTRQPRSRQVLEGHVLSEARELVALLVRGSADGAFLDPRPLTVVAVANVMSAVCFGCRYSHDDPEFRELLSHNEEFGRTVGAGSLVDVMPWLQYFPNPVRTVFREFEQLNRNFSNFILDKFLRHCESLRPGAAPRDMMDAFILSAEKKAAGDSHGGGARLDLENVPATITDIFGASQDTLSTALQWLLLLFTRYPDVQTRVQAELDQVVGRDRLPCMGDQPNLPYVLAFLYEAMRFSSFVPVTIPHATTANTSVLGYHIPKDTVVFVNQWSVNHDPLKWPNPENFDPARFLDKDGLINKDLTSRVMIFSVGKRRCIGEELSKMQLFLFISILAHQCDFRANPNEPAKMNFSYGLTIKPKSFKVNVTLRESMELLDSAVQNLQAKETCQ
The data set can be described thus: Inhibition of human CYP1B1 expressed in yeast microsomal membranes using 7-ethoxyresorufin as substrate measured after 10 mins by fluorescence assay. Format: cell membranes.

For data set [6], the target named is T2, Cytochrome P450 1A1 (Homo sapiens, UniProt P04798).
T2 sequence (P04798 whole entry): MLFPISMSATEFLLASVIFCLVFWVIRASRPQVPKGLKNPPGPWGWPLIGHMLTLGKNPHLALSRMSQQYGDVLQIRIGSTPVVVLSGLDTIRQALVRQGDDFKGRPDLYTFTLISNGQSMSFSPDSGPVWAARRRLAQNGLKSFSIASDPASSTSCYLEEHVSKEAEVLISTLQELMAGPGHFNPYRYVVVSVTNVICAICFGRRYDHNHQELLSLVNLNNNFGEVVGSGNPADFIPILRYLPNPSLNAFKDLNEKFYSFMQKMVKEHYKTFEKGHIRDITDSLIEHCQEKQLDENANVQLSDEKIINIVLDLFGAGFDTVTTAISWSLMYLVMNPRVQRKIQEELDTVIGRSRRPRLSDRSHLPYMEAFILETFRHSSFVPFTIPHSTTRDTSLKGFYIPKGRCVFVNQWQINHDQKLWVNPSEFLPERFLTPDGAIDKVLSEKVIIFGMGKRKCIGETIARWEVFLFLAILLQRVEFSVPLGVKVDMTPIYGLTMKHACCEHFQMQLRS
The data set can be described thus: Time-dependent inhibition of recombinant human CYP1A1 expressed in HEK293 cells using 7-ethoxyresorufin as substrate.

Data set [7] concerns the target T1, Cytochrome P450 1B1. The data set can be described thus: Inhibition of recombinant human CYP1B1 expressed in HEK293 cells using 7-ethoxyresorufin as substrate pretreated for 30 mins followed by substrate addition measured for 60 mins by fluorescence assay. Format: cell-based.
Data set [8] has as its target T3, Cytochrome P450 2B6 (Homo sapiens, UniProt P20813).
T3 sequence (P20813 whole entry): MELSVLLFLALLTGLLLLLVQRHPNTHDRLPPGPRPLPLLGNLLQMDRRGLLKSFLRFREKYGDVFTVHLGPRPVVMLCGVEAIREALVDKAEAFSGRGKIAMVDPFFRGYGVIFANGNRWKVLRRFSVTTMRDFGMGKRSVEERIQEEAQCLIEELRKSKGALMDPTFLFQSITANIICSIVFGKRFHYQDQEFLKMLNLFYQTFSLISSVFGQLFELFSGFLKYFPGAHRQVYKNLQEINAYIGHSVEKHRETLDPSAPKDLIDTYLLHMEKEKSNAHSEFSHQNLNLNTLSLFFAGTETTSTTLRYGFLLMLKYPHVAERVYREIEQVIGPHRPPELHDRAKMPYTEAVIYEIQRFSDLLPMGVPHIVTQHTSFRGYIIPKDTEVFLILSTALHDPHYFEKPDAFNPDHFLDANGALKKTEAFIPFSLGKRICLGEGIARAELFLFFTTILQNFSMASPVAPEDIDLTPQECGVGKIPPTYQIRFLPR
The data set can be described thus: Inhibition of human CYP2B6 expressed in yeast cells. In kind it is ADME, cell-based.

Where only a bound is given, the exact number is not on record here.

By IC50 is commonly meant the midpoint of a concentration-inhibition curve.

For the compound `COc1cc(/C=C/C(=O)c2ccncc2)cc(OC)c1OC`, the Ratio IC50 in data set [1] is above 100. The IC50 was above 10 µM in data set [2]; above 20 µM in data set [3]; above 10 µM in data set [4]; 5.21 µM in data set [5]; 8.18 µM in data set [7]; above 10 µM in data set [8]. Also, the TDI result in data set [6] is listed as “Not Active”.

(Values after ChEMBL document CHEMBL4177690, “(E)-3-(3,4,5-Trimethoxyphenyl)-1-(pyridin-4-yl)prop-2-en-1-one, a heterocyclic chalcone is a potent and selective CYP1A1 inhibitor and cancer chemopreventive agent” (Bioorg Med Chem Lett, 2017).)
